Data on 14 compounds can be found in patent publication US20150299125A1, “PRODRUG BIPYRIDYLAMINOPYRIDINES AS SYK INHIBITORS” (MERCK SHARP & DOHME CORP., priority 2012, published 2015).

Data set [1] concerns the target T1, recombinant human GST-Syk (Homo sapiens, UniProt P43405).
T1 construct: purchased Carna Biosciences 08-176
Nature of the data set: Homogeneous Time-Resolved Fluorescence (HTRF) assay for the recombinant human Syk enzyme. Type of data set: biochemical. The following applies: ATP 25 μM. An outline of the steps: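 HTRF read-out, taken 30 min after adding 2 nM europium anti-pTyr antibody plus 70 nM streptavidin-APC in 40 mM EDTA/Tris pH 7.5, detects peptide phosphorylated by GST-tagged human Syk during a 45-min room-temperature reaction.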
(In general: TR-FRET usually uses a lanthanide donor and a delayed reading to cut background.)

A short description of data set [2]: Conversion of prodrug to parent in in vitro biorelevant gastrointestinal tract media. The data set is classed as in vitro ADME. The following applies: 37° C.; for Conversion in SGF, time: simulated gastric fluid. Here is the method:
Conversion of Prodrug to Parent in In Vitro Biorelevant Gastrointestinal Tract Media: The likely stability of prodrugs in the gastrointestinal tract can be estimated by incubating a prodrug in simulated gastric and intestinal fluids; compounds were measured for stability in simulated gastric fluid (SGF), fasted state simulated intestinal fluid (FaSSIF), and fasted state simulated intestinal fluid plus pancreatin (FaSSIF+pancreatin). Prodrug stock solutions were made by diluting 2 mg of compound in 200 μL DMSO. A 10 mg/mL Pancreatin in FaSSIF stock solution was made by dissolving 10 mg Pancreatin in 1 mL FaSSIF. Samples were prepared by diluting 10 μL of compound stock solution into 990 μL of biorelevant media (990 μL SGF, 990 μL FaSSIF, or 940 μL FaSSIF plus 50 μL Pancreatin stock) in a 2 mL HPLC vial and vortexing the mixture for a few seconds. The samples were incubated at 37° C. and aliquots were removed for up to 24 hours and injected directly on an HPLC to determine the conversion of prodrug to active drug. In the case of compound precipitation upon sample preparation, an individual sample was prepared for each desired time point and the entire sample was diluted with a known volume of acetonitrile/water (50/50) to ensure compound dissolution before HPLC analysis.

Data set [3] is described as follows: Solubility in biorelevant fasted state simulated intestinal fluid (FaSSIF). The data set is classed as physicochemical. The following applies: 25 °C, fassif, kinetic from dmso stock, Solubility. An outline of the steps: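 Compound from 10 mM DMSO stock diluted into FaSSIF (maximum solubility approximately 200 μM), equilibrated, then filtered by centrifugation through a 0.45 μm polypropylene membrane. Filtrate and a 100 μM standard analysed by HPLC/DAD; solubility = (sample peak area/standard peak area) × standard concentration.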

The mark [4] stands for this setting: recombinant human GST-Syk 5 pM, read-out: IC50.

In brackets after ≈: the same amount, converted by molar mass. Read-outs that look alike come from different tables or passages of the source.

As a reminder, the IC50 is the concentration that gives 50% inhibition. On to `Cc1cc(Nc2cc(C(F)F)ccn2)nc(-c2ccc([C@](C)(O)[C@H]3CC[C@H](C(=O)Oc4ccc(C#N)cc4)CC3)nc2)c1` [Example 1-29, 4-cyanophenyl trans-4-[(1R)-1-(6-{[4-(difluoromethyl)pyridin-2-yl]amino}-4-methyl-2,3′-bipyridin-6′-yl)-1-hydroxyethyl] cyclohexanecarboxylate], for which, in data set [1] (setting [4]), the IC50 turned out to be 7.3 nM. Also, the “Conversion in FaSSIF + Pancreatin, time” value in data set [2] (24 h) is reported as 44%, 24 h. Moreover, in data set [2] (5 h), the “Conversion in FaSSIF, time” value is given as 0%, 5 h and the “Conversion in SGF, time” value is 0%, 5 h.

For the compound `Cc1cc(Nc2cc(C(F)F)ccn2)nc(-c2ccc([C@](C)(O)[C@H]3CC[C@H](C(=O)OCOC(=O)OCCOCCOCCOCCO)CC3)nc2)c1` [Example 2-4, 15-hydroxy-3-oxo-2,4,7,10,13-pentaoxapentadec-1-yl trans-4-[(1R)-1-(6-{[4-(difluoromethyl)pyridin-2-yl]amino}-4-methyl-2,3′-bipyridin-6′-yl)-1-hydroxyethyl]cyclo hexanecarboxylate], the IC50 in data set [1] (setting [4]) came to 5.3 nM. In addition, the “Conversion in FaSSIF + Pancreatin, time” value in data set [2] (3 h) is on record as 100%, 3 h. The “Conversion in FaSSIF, time” value in data set [2] (24 h) is given as 5%, 24 h. In data set [2] (5 h), the “Conversion in SGF, time” value was 0%, 5 h.

On to `CCOCCOC(=O)OCOC(=O)[C@H]1CC[C@H]([C@@](C)(O)c2ccc(-c3cc(C)cc(Nc4cc(C(F)F)ccn4)n3)cn2)CC1` [Example 2-6, {[(2-ethoxyethoxy)carbonyl]oxy}methyl trans-4-[(1R)-1-(6-{[4-(difluoromethyl)pyridin-2-yl]amino}-4-methyl-2,3′-bipyridin-6′-yl)-1-hydroxyethyl]cyclo hexanecarboxylate], for which, in data set [1] (setting [4]), the half-maximal inhibitory concentration (IC50) was less than 0.5 nM. Also, in data set [2] (3 h), the “Conversion in FaSSIF + Pancreatin, time” value is recorded as 95%, 3 h. Also, in data set [2] (5 h), the “Conversion in FaSSIF, time” value is 0%, 5 h and the “Conversion in SGF, time” value is reported as 0%, 5 h.

For orientation: solubility means the concentration that dissolves in the medium under given conditions. Read a low solubility as little dissolved substance. Turning to `CC[N+]1(COC(=O)[C@H]2CC[C@H]([C@@](C)(O)c3ccc(-c4cc(C)cc(Nc5cc(C(F)F)ccn5)n4)cn3)CC2)CCCCC1` [Example 5-14, 1-{[({trans-4-[(1R)-1-(6-{[4-(difluoromethyl)pyridin-2-yl]amino}-4-methyl-2,3′-bipyridin-6′-yl)-1-hydroxyethyl]cyclohexyl}carbonyl)oxy]methyl}-1-ethylpiperidinium], the half-maximal inhibitory concentration (IC50) in data set [1] (setting [4]) came out at 2.3 nM. In data set [3], the concentration in solution (solubility) came to 200 µM.

`CC(=O)C1CC[N+](C)(COC(=O)[C@H]2CC[C@H]([C@@](C)(O)c3ccc(-c4cc(C)cc(Nc5cc(C(F)F)ccn5)n4)cn3)CC2)CC1` (stereo partly drawn) [Example 5-17, 4-acetyl-1-{[({trans-4-[(1R)-1-(6-{[4-(difluoromethyl)pyridin-2-yl]amino}-4-methyl-2,3′-bipyridin-6′-yl)-1-hydroxyethyl]cyclohexyl}carbonyl)oxy]methyl}-1-methylpiperidinium]: in data set [1] (setting [4]), the IC50 amounted to 1.6 nM. Moreover, the solubility in data set [3] was 45 µM.

`Cc1cc(Nc2cc(C(F)F)ccn2)nc(-c2ccc([C@](C)(O)[C@H]3CC[C@H](C(=O)OC[N+](C)(C)Cc4ccccc4)CC3)nc2)c1` [Example 5-20, N-benzyl[({trans-4-[(1R)-1-(6-{[4-(difluoromethyl)pyridin-2-yl]amino}-4-methyl-2,3′-bipyridin-6′-yl)-1-hydroxyethyl]cyclohexyl}carbonyl)oxy]-N,N-dimethylmethanaminium]: in data set [1] (setting [4]), the IC50 stood at 0.8 nM. In data set [3], this compound yielded a solubility of 86 µM.

Consider `Cc1cc(Nc2cc(C(F)F)ccn2)nc(-c2ccc([C@](C)(O)[C@H]3CC[C@H](C(=O)OC[N+](C)(C)CCOCCN(C)C)CC3)nc2)c1` [Example 5-23, N-{[({trans-4-[(1R)-1-(6-{[4-(difluoromethyl)pyridin-2-yl]amino}-4-methyl-2,3′-bipyridin-6′-yl)-1-hydroxyethyl]cyclohexyl}carbonyl)oxy]methyl}-2-[2-(dimethylamino)ethoxy]-N,N-dimethylethanaminium], for which the half-maximal inhibitory concentration (IC50) in data set [1] (setting [4]) worked out at 1.1 nM. The compound also yielded a solubility in data set [3] of 98 µM.

Take `Cc1cc(Nc2cc(C(F)F)ccn2)nc(-c2ccc([C@](C)(O)[C@H]3CC[C@H](C(=O)OC[N+](C)(C)CCOC(=O)c4ccccc4)CC3)nc2)c1` [Example 5-25, N-{[({trans-4-[(1R)-1-(6-{[4-(difluoromethyl)pyridin-2-yl]amino}-4-methyl-2,3′-bipyridin-6′-yl)-1-hydroxyethyl]cyclohexyl}carbonyl)oxy]methyl}-N,N-dimethyl-2-[(phenylcarbonyl)oxy]ethanaminium]: the half-maximal inhibitory concentration (IC50) in data set [1] (setting [4]) amounted to 0.7 nM. The compound further had a solubility in data set [3] of 155 µM.

Consider `Cc1cc(Nc2cc(C(F)F)ccn2)nc(-c2ccc([C@](C)(O)[C@H]3CC[C@H](C(=O)OC[N+]4(C)CCN(C)CC4)CC3)nc2)c1` [Example 5-26, 1-{[({trans-4-[(1R)-1-(6-{[4-(difluoromethyl)pyridin-2-yl]amino}-4-methyl-2,3′-bipyridin-6′-yl)-1-hydroxyethyl]cyclohexyl}carbonyl)oxy]methyl}-1,4-dimethylpiperazin-1-ium], for which the IC50 in data set [1] (setting [4]) came to 2 nM. The compound further yielded a solubility in data set [3] of 68 µM.

Take `Cc1cc(Nc2cc(C(F)F)ccn2)nc(-c2ccc([C@](C)(O)[C@H]3CC[C@H](C(=O)OC[N+]4(C)CCC(O)CC4)CC3)nc2)c1` (stereo partly drawn) [Example 5-27, 1-{[({trans-4-[(1R)-1-(6-{[4-(difluoromethyl)pyridin-2-yl]amino}-4-methyl-2,3′-bipyridin-6′-yl)-1-hydroxyethyl]cyclohexyl}carbonyl)oxy]methyl}-4-hydroxy-1-methylpiperidinium]: the 50% inhibitory concentration (IC50) in data set [1] (setting [4]) came out at 1.5 nM. In data set [3], this compound registered a solubility of 164 µM.

For the compound `Cc1cc(Nc2cc(C(F)F)ccn2)nc(-c2ccc([C@](C)(O)[C@H]3CC[C@H](C(=O)OC[N+]4(C)CCC(CO)CC4)CC3)nc2)c1` (stereo partly drawn) [Example 5-29, 1-{[({trans-4-[(1R)-1-(6-{[4-(difluoromethyl)pyridin-2-yl]amino}-4-methyl-2,3′-bipyridin-6′-yl)-1-hydroxyethyl]cyclohexyl}carbonyl)oxy]methyl}-4-(hydroxymethyl)-1-methylpiperidinium], the 50% inhibitory concentration (IC50) in data set [1] (setting [4]) is less than 0.5 nM. The compound further registered a solubility in data set [3] of 176 µM.

Regarding `Cc1cc(Nc2cc(C(F)F)ccn2)nc(-c2ccc([C@](C)(O)[C@H]3CC[C@H](C(=O)OCCC[S+](C)[O-])CC3)nc2)c1` (stereo partly drawn) [Example 7-4, 3-(methylsulfinyl)propyl trans-4-[(1R)-1-(6-{[4-(difluoromethyl)pyridin-2-yl]amino}-4-methyl-2,3′-bipyridin-6′-yl)-1-hydroxyethyl]cyclohexane carboxylate], the IC50 in data set [1] (setting [4]) came out at 4.3 nM. In data set [3], this compound came in with a solubility of 141 µM (≈ 82.7 µg/mL).

As to `Cc1cc(Nc2cc(C(F)F)ccn2)nc(-c2ccc([C@](C)(O)[C@H]3CC[C@H](C(=O)O[C@H]4CC[C@H](N(C)C)CC4)CC3)nc2)c1` [Example 9-1, Trans-4-(Dimethylamino)cyclohexyl trans-4-[(1R)-1-(6-{[4-(difluoromethyl)pyridin-2-yl]amino}-4-methyl-2,3′-bipyridin-6′-yl)-1-hydroxyethyl]cyclohexanecarboxylate], in data set [1] (setting [4]), the IC50 was 3.2 nM. For the same compound, the solubility in data set [3] was 162 µM (≈ 98.5 µg/mL).

As for `Cc1cc(Nc2cc(C(F)F)ccn2)nc(-c2ccc([C@](C)(O)[C@H]3CC[C@H](C(=O)O)CC3)nc2)c1` [PrepEx 1-5, trans-4-[(1R)-(6-{[4-(Difluoromethyl)pyridin-2-yl]amino}-4-methyl-2,3′-bipyridin-6′-yl)-1-hydroxyethyl]cyclohexanecarboxylic acid], in data set [1] (IC50, recombinant human GST-Syk 5 pM), the IC50 is less than 0.5 nM. For the same compound, the solubility in data set [3] is less than 3 µM.
